Test results reported in ChEMBL document CHEMBL3826903, “Extended rhodamine photosensitizers for photodynamic therapy of cancer cells” (Bioorg Med Chem, 2016).

Columns and labels:
Colon 26 [1] = test: Dark toxicity against mouse Colon 26 cells assessed as cell survival fraction at 1 uM incubated for 1 hr in dark measured after 48 hrs by SRB assay; type: cell-based; details: colon 26, 1 µM
[2] = Induction of singlet oxygen assessed as quantum yields for generation of singlet oxygen by luminescence spectroscopy; type: physicochemical
[3] = Drug localization in mitochondria of human HUT78 cells assessed as bright detail similarity scores at 0.2 uM incubated for 15 mins in presence of MTG by flow cytometry; type: ADME; details: hut78, 0.25 h
[4] = Therapeutic index, ratio of LD50 for dark toxicity against mouse Colon 26 cells to EC50 for phototoxicity against mouse Colon 26 cells at 5 Jcm'-2 of irradiation with 700 +/- 2 nm light; type: cell-based; details: read-out: Ratio LD50/EC50
Colon 26 [5] = test: Phototoxicity against mouse Colon 26 cells assessed as cell survival fraction incubated for 1 hr in dark followed by irradiation with 5 J/cm'-2 light from tunable dye laser at 700 +/- 2 nm measured after 48 hrs by SRB assay; type: functional, cell-based; details: Colon 26, light or radiation study
[6] = Therapeutic index, ratio of LD50 for dark toxicity against mouse Colon 26 cells to EC50 for phototoxicity against mouse Colon 26 cells at 10 Jcm'-2 of irradiation with 700 +/- 2 nm light; type: cell-based; details: read-out: Ratio LD50/EC50
[7] = Drug localization in mitochondria of mouse Colon 26 cells assessed as bright detail similarity scores at 0.2 uM incubated for 15 mins in presence of MTG by flow cytometry; type: ADME; details: colon 26, 0.25 h
Colon 26 [8] = test: Phototoxicity against mouse Colon 26 cells assessed as cell survival fraction incubated for 1 hr in dark followed by irradiation with 10 J/cm'-2 light from tunable dye laser at 700 +/- 2 nm measured after 48 hrs by SRB assay; type: functional, cell-based; details: Colon 26, light or radiation study
[9] = Dark toxicity against mouse Colon 26 cells assessed as cell survival fraction incubated for 1 hr in dark measured after 48 hrs by SRB assay; type: cell-based; details: read-out: LD50
Colon 26 [10] = test: Phototoxicity against mouse Colon 26 cells assessed as cell survival fraction incubated for 1 hr in dark followed by irradiation with 10 J/cm'-2 light from tunable dye laser at 690 +/- 2 nm measured after 48 hrs by SRB assay; type: functional, cell-based; details: Colon 26, light or radiation study
[11] = Therapeutic index, ratio of LD50 for dark toxicity against mouse Colon 26 cells to EC50 for phototoxicity against mouse Colon 26 cells at 10 Jcm'-2 of irradiation with 690 +/- 2 nm light; type: cell-based; details: read-out: Ratio LD50/EC50
[12] = Therapeutic index, ratio of LD50 for dark toxicity against mouse Colon 26 cells to EC50 for phototoxicity against mouse Colon 26 cells at 5 Jcm'-2 of irradiation with 690 +/- 2 nm light; type: cell-based; details: read-out: Ratio LD50/EC50
Colon 26 [13] = test: Phototoxicity against mouse Colon 26 cells assessed as cell survival fraction incubated for 1 hr in dark followed by irradiation with 5 J/cm'-2 light from tunable dye laser at 690 +/- 2 nm measured after 48 hrs by SRB assay; type: functional, cell-based; details: Colon 26, light or radiation study
[14] = Therapeutic index, ratio of LD50 for dark toxicity against mouse Colon 26 cells to EC50 for phototoxicity against mouse Colon 26 cells at 1 Jcm'-2 of irradiation with 660 +/- 2 nm nm light; type: cell-based; details: read-out: Ratio LD50/EC50
Colon 26 [15] = test: Phototoxicity against mouse Colon 26 cells assessed as cell survival fraction incubated for 1 hr in dark followed by irradiation with 1 J/cm'-2 light from tunable dye laser at 660 +/- 2 nm measured after 48 hrs by SRB assay; type: functional, cell-based; details: Colon 26, light or radiation study
Colon 26 [16] = test: Phototoxicity against mouse Colon 26 cells assessed as cell survival fraction incubated for 1 hr in dark followed by irradiation with 1 J/cm'-2 light from tunable dye laser at 642 +/- 2 nm measured after 48 hrs by SRB assay; type: functional, cell-based; details: Colon 26, light or radiation study

| Compound | Activity (Colon 26 [1]) | Singlet oxygen quantum yield [2] | Drug uptake [3] | selectivity ratio [4] | EC50 (Colon 26 [5]) [nM] | selectivity ratio [6] | Drug uptake [7] | EC50 (Colon 26 [8]) [nM] | CC50 at 1 h [9] [nM] | EC50 (Colon 26 [10]) [nM] | selectivity ratio [11] | selectivity ratio [12] | EC50 (Colon 26 [13]) [nM] | selectivity ratio [14] | EC50 (Colon 26 [15]) [nM] | EC50 (Colon 26 [16]) [nM] |
| --- | --- | --- | --- | --- | --- | --- | --- | --- | --- | --- | --- | --- | --- | --- | --- | --- |
| CN(C)c1ccc2c(-c3ccccc3)c3cc4ccc(=[N+](C)C)cc4cc3[se]c2c1.F[P-](F)(F)(F)(F)F | Toxic | < 0.05 | 0.683 | 8.3 | 240 | 11 | 0.7204 | 180 | 2000 | – | – | – | – | – | – | – |
| CN(C)c1ccc2c(-c3ccccc3)c3cc4ccc(=[N+](C)C)cc4cc3sc2c1.F[P-](F)(F)(F)(F)F | Toxic | < 0.05 | 2.153 | – | – | – | 1.2 | – | 460 | 90 | 5.1 | 3.3 | 140 | – | – | – |
| CN(C)c1ccc2c(-c3ccccc3)c3ccc4cc(=[N+](C)C)ccc4c3[se]c2c1.F[P-](F)(F)(F)(F)F | Non-toxic | 0.65 | 2.458 | – | – | – | 1.38 | – | > 1000 | – | – | – | – | > 15 | 64 | – |
| CN(C)c1ccc2c(-c3ccccc3)c3ccc4cc(=[N+](C)C)ccc4c3sc2c1.F[P-](F)(F)(F)(F)F | Non-toxic | 0.15 | 2.82 | – | – | – | 1.77 | – | – | – | – | – | – | – | – | 280 |
